Experimental data taken from patent US6991902B2, “Nucleobase heterocyclic combinatorialization” (ISIS Pharmaceuticals, Inc., priority 1997, dated 2006).

Tests used:
Conditions in all cases: deblocked single compounds
[1] = tested on: Escherichia coli; assay: Antimicrobial assay (MIC), Escherichia coli; type: cell-based
[2] = tested on: E. coli imp-; assay: Antimicrobial assay (MIC), E. coli imp-; type: cell-based, Escherichia coli
Protocol: In this assay, the strain E. coli imp- obtained from Spenser Bensen (Sampson., B. A., Misra, R. & Benson, S. A. (1989), Genetics, 122, 491-501, Identification and characterization of a new gene of Escherichia coli K-12 involved in outer membrane permeability) is used. To initiate the exponential phase of bacterial growth prior to the assay, a sample of bacteria is grown overnight at 37° C. in Luria broth. This bacteria is then used to reinoculate sample wells of 96-well microtiter plates. The assays are carried out in the 96-well microtiter plates in 150 μL volume with approximately 1×10^6 cells per well.
Bacteria in Luria broth (75 μL) is added to the compound mixtures in solution in 75 μL water in the individual well of the microtiter plate. Final concentrations of the compound mixtures are 25 μM, 10 μM and 1 μM. Each concentration of the compound mixtures are assayed in triplicate. The plates are incubated at 37° C. and growth monitored over a 24 hour period by measuring the optical density at 595 nm using a BioRad model 3550 UV microplate reader. The percentage of growth relative to a well containing no compound is determined. […]
Libraries in accordance with the present invention have been tested for antibacterial activity utilizing assays that determine the minimum inhibitory concentration (MIC). […] Activity has been detected in a number of libraries of the present invention.

[3] = tested on: Klebsiella pneumoniae; assay: Antimicrobial assay (MIC), Klebsiella pneumoniae; type: cell-based
[4] = tested on: Entercoccus hirae; assay: Antimicrobial assay (MIC), Entercoccus hirae; type: cell-based
[5] = tested on: Streptococcus pyogenes; assay: Antimicrobial assay (MIC), Streptococcus pyogenes; type: cell-based
[6] = tested on: Staphylococcus aureus; assay: Antimicrobial assay (MIC), Staphylococcus aureus; type: cell-based
Protocol: In this assay, the strain S. aureus ATCC 25923 (American Type Culture Collection) is used in the bioassay. To initiate the exponential phase of bacterial growth prior to the assay, a sample of bacteria is grown overnight at 37° C. in typtocase soy broth (BBL). This bacteria is then used to reinoculate sample wells of 96-well microtiter plates. The assays are carried out in the 96-well microtiter plates in 150 μL volume with approximately 1×10^6 cells per well.
Bacteria in typtocase soy broth (75 μL) is added to the compound mixtures in solution in 75 μL water/4% DMSO in the individual well of the microtiter plate. Final concentrations of the compound mixtures are 25 μM, 10 μM and 1 μM. Each concentration of the compound mixtures are assayed in triplicate. The plates are incubated at 37° C. and growth monitored over a 24 hour period by measuring the optical density at 595 nm using a BioRad model 3550 UV microplate reader. The percentage of growth relative to a well containing no compound is determined. Ampicillin and tetracycline antibiotic positive controls are concurrently tested in each screening assay.

6-[(2-Aminobenzothiazole acetyl)piperazinyl]-2-[(m-chlorobenzyl)-piperazinyl]-N9-[(N′-t-Boc-N″-acetyl)piperazinyl]purine [Compound 46]
minimum inhibitory activity, Escherichia coli [1]: 50 to 100 µM | minimum inhibitory activity, E. coli. imp- [2]: 3 to 6 µM | minimum inhibitory activity, Klebsiella pneumoniae [3]: 3 to 6 µM | minimum inhibitory activity, Entercoccus hirae [4]: 3 to 6 µM | minimum inhibitory activity, Streptococcus pyogenes [5]: 3 to 6 µM | minimum inhibitory activity, Staphylococcus aureus [6]: 3 to 6 µM

6-[(2-aminobenzothiazole acetyl)piperazinyl]-2-[(N-m-triflouromethylbenzyl)piper-azinyl]-N9-[(N′-t-Boc-N″-acetyl)piperazinyl]purine [Compound 50]
minimum inhibitory activity, Escherichia coli [1]: >100 µM | minimum inhibitory activity, E. coli. imp- [2]: 3 µM | minimum inhibitory activity, Klebsiella pneumoniae [3]: 3 to 6 µM | minimum inhibitory activity, Entercoccus hirae [4]: 3 µM | minimum inhibitory activity, Streptococcus pyogenes [5]: 3 to 6 µM | minimum inhibitory activity, Staphylococcus aureus [6]: 3 to 6 µM
